Literature values in US20090022788A1, “DIETARY SUPPLEMENT FOR HEALING OR REGRESSING SYMPTOMS OF GASTROESOPHAGEAL REFLUX DISEASE, GASTRITIS AND ULCERS” (priority 2006, published 2009).

System: spontaneous gastric ulcers
Conditions: young pigs, 4-week administration in the diet

COc1ccc2[nH]cc(CCNC(C)=O)c2c1 [melatonin, N-Acetyl-5-methoxytryptamine]
incidence of spontaneous gastric ulcers: significantly reduced
